Test results published in publication PMC9025605, “Polymerized β-Cyclodextrin-Based Injectable Hydrogel for Sustained Release of 5-Fluorouracil/Methotrexate Mixture in Breast Cancer Management: In Vitro and In Vivo Analytical Validations” (Pharmaceutics, 2022).
Where two headings read alike, the source gives them in different places.

Columns and labels:
[1] = Pharmacokinetic study after intratumoral injection (plasma, HPLC); assay type: in vivo, albino female rats; settings: for Cmax: rat plasma
Protocol: The present in vivo works was performed on albino female rats (weighing 185 ± 15.1 g). The ethical approval of all the experiments was issued by the Faculty of Pharmacy, Al-Azhar University, under no AZ-AS/PH/2/C/2021. The rats were acclimatized at room temperature with a 12-h light/12-h dark cycle. Tumor-induction of 48 female rats were randomly divided into the four independent groups (with n = 12 per each group × triple trials); G1 was the controlled group, which is positive control and were received no any type of medications; G2 received a sole dose of 5-FU saline solution (100 mg/kg); G3 received a combined mixture of 5-FU/MTX saline solution (respectively, 100 and 40 mg/kg); and, finally, G4 received 5-FU/MTX hydrogel. The sole 5-FU and/or combined with MTX doses in normal saline were injected into rats using normal syringes, while the injectable medicated hydrogel doses were injected using a mixing syringe device (Doowon Meditec Corp., Youngin City, Republic of Korea). After finishing the administration processes, blood samples were collected at certain time intervals (0.5, 1, 2, 4, 6, 8, 10, 12, and 14 h). HPLC chromatographic analysis was utilized for the detection of drug concentrations.
One mL of a plasma sample in an Eppendorf tube was initially mixed with phosphate buffer (0.2 mL of 0.5 M at pH 8), after being mixed in a vortex, and an ethyl acetate solution (4.0 mL) was added and mixed in a vortex for 1 min. Then, the contents of the tube were centrifuged at 5000 rpm and temperature 10 °C for 5 min. The organic phase was taken and evaporated until dry, by using a stream of nitrogen gas at 55 °C. The drug mixture in the residue was reconstituted by a solution of potassium dihydrogen phosphate (100 µL of 0.01 M, at pH 4.0), and, then, the resulted solution was filtrated through a 0.2 μm filter syringe, before transferring into autosampler vials of the chromatographic analysis.
A high-performance liquid chromatography, HPLC (Parkin Elmer, JASCO Corporation, Tokyo, Japan), equipped with an autosampler, was used through this study. The detection method was performed using a variable wavelength UV detector, which adjusted at 266 nm for both drugs. The analytical Phenomenex, C18 symmetry RPh-column (4.6 × 250 mm; 5 µm PS) (Cap cell Pak UG120, Shiseido, Tokyo, Japan), was used at 40 °C. The mobile phase was an isocratic mixture (89:11, v/v) of, respectively, methanol and potassium dihydrogen phosphate (10 mM and adjusted to pH 4 with the aid orthophosphoric acid), which was pumped at a flow rate of 1.0 mL/min. The injected volume was 20 µL.
The concentrations of 5-FU and MTX in different rats’ plasma samples (n = 6) were calculated from the corresponding calibration curves equation, developed in the above HPLC method. The plasma concentration-time (Cp/) curve of 5FU/MTX (plasma concentrations; µg/mL in case of using a vehicle of saline, and ng/mL in case of using a vehicle hydrogel) was constructed for both drugs. Next, from the constructed (Cp/t) curves, all the common pharmacokinetic parameters of both drugs were determined using the following Equation (1). […] Moreover, the area under the Cp/t curve (AUC0-24 and AUC0-∞) (ng. h/mL) was measured using the trapezoidal rule to indicate the extent of drug absorption. The peak Cp (Cmax), the time corresponding to the maximum Cp (Tmax), and the half-life, t1/2 (h), were calculated.

[2] = test system: mammary gland tissues; assay: Histopathological examination of tumor masses (H and E); assay type: in vivo, female rats; settings: tumor-bearing rats versus untreated G1
Protocol: Several tissue samples (n = 3) were taken from the tumor masses of the induced mammary glands and were fixed in formalin for 24 h. The fixed samples were processed for the usual histological procedures for hematoxylin and eosin stains, the counter staining of ultra-thin paraffin sections (5 µm; Micro HM 360® Microtome, Marshall Scientific, Hampton Virginia, USA). The stained sections were examined under a light microscope (Olympus B × 46) and were digitally photographed using its connected Olympus DP 21 digital camera (Olympus Corporation, Tokyo, Japan).

[3] = In vitro release of 5-FU and MTX from the medicated hydrogel in PBS at 37 °C; assay type: physicochemical; settings: for duration of quantitative release from hydrogel: 0.1% w/v; for drug released from hydrogel within the first day / drug released from hydrogel within the second day: 0.1% w/v drug in hydrogel
Protocol: Several samples (n = 6) of the medicated hydrogel (0.5 g, containing 0.5 mg of each 5-FU and MTX), were placed in 2-mL glass vials and allowed to be incubated at 4 °C for 2 h. Next, one mL of PBS was added above the formulated hydrogel mass and allowed to be incubated in a thermostatic water bath under a shaking rate of 50 rpm at 37 °C. After specific time intervals (each 24 h), 700 µL of the supernatant was withdrawn and replaced immediately with a fresh-prepared PBS, previously incubated at the same temperature to ensure the sink conditions. This process of sample withdrawal and replacing was allowed to continue until the complete clearance or full release of both two incorporated drugs from the hydrogel samples. Thus, the concentration of 5-FU and MTX in the mixture, in each collected sample, was measured simultaneously at 266 nm and 302 nm, respectively, with the aid of the spectrophotometric method, as mentioned before.

[4] = test system: breast tumor (chemically induced breast cancer); assay: Effect on tumor growth (tumor volume, % inhibition); assay type: in vivo, female rats; settings: negative = tumor growth, read from Figure 6
Protocol: For transplantation experiments, recipient syngeneic female rats (6–7 weeks old) were anesthetized with an intramuscular injection of ketamine (8.0 mg/kg dose) and xylazine (10 mg/kg dose). Breast cancer was induced to the investigated rats by chemical induction using […], previously reported techniques. […] The tumor size for all animals was examined using a Vernier caliper (micrometer-Ozaki Ltd., Tokyo, Japan) and calculated using the following Equation (2). TV (mm^3) = 1/2 × Length × Width^2(2)
Thus, the changes in a tumor volume in rats were determined every 5 days for 15 days after administration of the injectable medicated hydrogel (contains a concentration of 100 and 40 mg/kg, respectively, for 5-FU and MTX). The antitumor effect was monitored via measuring both the relative tumor volume (RTV), representing the tumor volume after treatment, using Equation (3). (3) % RTV=(Vt)/(V0)×100 where, Vt represents the tumor volume at each time interval, and V0 is a tumor volume directly after drug injection. The % of tumor volume inhibition was calculated using the following Equation (4). (4) % Inhibition =1−(Vt)/(V0)×100

[5] = parameters: method as in PMID 1246307, PMID 18794772, PMID 15018974; settings: cited from earlier work

Tmax ([1]; female, rat, plasma, 100 mg/kg, sole administration of 5-FU in saline)	Cmax ([1]; female, 5-FU alone in saline, 100 mg/kg, intratumoral, read-out: Cmax)	time within which in vivo release ended ([1]; free 5-FU solution, 100 mg/kg in saline)	elimination half-life (t1/2) ([1]; free 5-FU solution, first order)	duration of quantitative release from hydrogel [3]	drug released from hydrogel within the first day [3]	drug released from hydrogel within the second day [3]	completeness of the release profile of 5-FU ([3]; drug concentration 0.1%)	completeness of the release profile of 5-FU ([3]; drug concentration 0.3%)	completeness of the release profile of 5-FU ([3]; drug concentration 0.5%)	Cmax ([1]; female, other: intratumoral injection, MTX 40 mg/kg, combined with 5-FU in saline, read-out: Cmax of MTX)	SMILES	histopathological finding in mammary gland tissue [2]	% Inhibition of tumor volume ([4]; 5 days after treatment)	% Inhibition of tumor volume ([4]; 10 days after treatment)	% Inhibition of tumor volume ([4]; 15 days after treatment)	half-life [5]
1 h	25200 ng/mL	≤ 7 h	30 min	two weeks	15%	38%	≤ 14 days	≤ 18 days	≤ 21 days		O=c1[nH]cc(F)c(=O)[nH]1 [5-FU, 5-fluorouracil]	Only mild improvement	-25%	-90%	-185%	10 to 20 min
				two weeks	40%	60%				15200 ng/mL	CN(Cc1cnc2nc(N)nc(N)c2n1)c1ccc(C(=O)N[C@@H](CCC(=O)O)C(=O)O)cc1 [MTX, methotrexate]					
